Tests used:
pERK level in H358 cells = experiment: pERK and ERK protein content assay in H358 cells (ELISA); format: cell-based; details: Homo sapiens, NCI-H358, compound 1 μM, 24 h, pERK/ERK ratio compared with DMSO group, read-out: Inhibition rate (%) of pERK level
Procedure, shortened: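 H358 cells grown one day, then treated 24 h with compound at 1 μM. pERK and ERK in lysates measured by ELISA; pERK/ERK ratio expressed as percent inhibition versus DMSO.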

H358 cells = experiment: Antiproliferative activity against H358 cells (Cell Titer Glow, ultra-low attachment plate); format: cell-based; details: Homo sapiens, NCI-H358, 72 h, 96-well ultra-low attachment plate, three days after addition of compound, Cell Titer Glow
Experimental: 2500 H358 cells were seeded in a 96-well ultra-low attachment plate (corning, 7007). After one day of growth, a serially diluted compound (a maximum concentration of 5 μM, 5-fold dilution, a total of five doses) was added. Three days after the addition of the compound, Cell Titer Glow (Promega, G9681) was added to evaluate pellet growth, and the IC50 value was calculated.

SMILES | inhibition at 1 µM (pERK level in H358 cells) [%] | IC50 (H358 cells) [nM]
C=CC(=O)N1CC2(CCN(c3nc(N4CC[C@@H](N5CCC(F)CC5)C4)nc4c(OCC(F)(F)F)c(-c5c(C)ccc6[nH]ncc56)c(C5CC5)cc34)CC2)C1 [Compound 212] | > 90 | < 300
C=CC(=O)N1CC2(CCN(c3nc(N4CC[C@H](N5CCC(OC)CC5)C4)nc4c(OCC(F)(F)F)c(-c5c(C)ccc6[nH]ncc56)c(C5CC5)cc34)CC2)C1 [Compound 213] | 50 to 90 | 300 to 1000
C=CC(=O)N1CC2(CCN(c3nc(N4CC[C@@H](N5CCC(OC)CC5)C4)nc4c(OCC(F)(F)F)c(-c5c(C)ccc6[nH]ncc56)c(C5CC5)cc34)CC2)C1 [Compound 214] | 50 to 90 | 300 to 1000
C=CC(=O)N1CC2(CCN(c3nc(N4CCC(N5CCC5)CC4)nc4c(OCC(F)(F)F)c(-c5c(C)ccc6[nH]ncc56)c(C5CC5)cc34)CC2)C1 [Compound 215] | > 90 | < 300
C=CC(=O)N1CC2(CCN(c3nc(N4CCC(N5CCCC5)CC4)nc4c(OCC(F)(F)F)c(-c5c(C)ccc6[nH]ncc56)c(C5CC5)cc34)CC2)C1 [Compound 216] | > 90 | < 300
C=CC(=O)N1CC2(CCN(c3nc(N4CC(N5CCC5)C4)nc4c(OCC(F)(F)F)c(-c5c(C)c(C)cc6[nH]ncc56)c(C5CC5)cc34)CC2)C1 [Compound 217] | > 90 | < 300
C=CC(=O)N1CC2(CCN(c3nc(N4CC(N5CCCC5)C4)nc4c(OCC(F)(F)F)c(-c5c(C)c(C)cc6[nH]ncc56)c(C5CC5)cc34)CC2)C1 [Compound 218] | > 90 | < 300
C=CC(=O)N1CC2(CCN(c3nc(N4CC(N5CCC5)C4)nc4c(OCC(F)(F)F)c(-c5c(C)c(F)cc6[nH]ncc56)c(C5CC5)cc34)CC2)C1 [Compound 219] | > 90 | < 300
C=CC(=O)N1CC2(CCN(c3nc(N4CC(N5CCCC5)C4)nc4c(OCC(F)(F)F)c(-c5c(C)c(F)cc6[nH]ncc56)c(C5CC5)cc34)CC2)C1 [Compound 220] | > 90 | < 300
C=CC(=O)N1CC2(CCN(c3nc(N4CC(N5CCC5)C4)nc4c(OCC(F)(F)F)c(-c5c(C)c(C)cc6[nH]ncc56)c(C=C)cc34)CC2)C1 [Compound 221] | > 90 | < 300
C=CC(=O)N1CC2(CCN(c3nc(N4CC(N5CCCC5)C4)nc4c(OCC(F)(F)F)c(-c5c(C)c(C)cc6[nH]ncc56)c(C=C)cc34)CC2)C1 [Compound 222] | > 90 | < 300
C=CC(=O)N1CC2(CCN(c3nc(N4CC(N5CCC5)C4)nc4c(OCC(F)(F)F)c(-c5c(C)c(F)cc6[nH]ncc56)c(C=C)cc34)CC2)C1 [Compound 223] | > 90 | < 300
C=CC(=O)N1CC2(CCN(c3nc(N4CC(N5CCCC5)C4)nc4c(OCC(F)(F)F)c(-c5c(C)c(F)cc6[nH]ncc56)c(C=C)cc34)CC2)C1 [Compound 224] | > 90 | < 300
C=CC(=O)N1CC2(CCN(c3nc(N(C)CCN(C)C)nc4c(OCC(F)(F)F)c(-c5c(C)ccc6[nH]ncc56)c(C5CC5)cc34)CC2)C1 [Compound 225] | > 90 | < 300
C=CC(=O)N1CC2(CCN(c3nc(N(C)CCN4CCC4)nc4c(OCC(F)(F)F)c(-c5c(C)ccc6[nH]ncc56)c(C5CC5)cc34)CC2)C1 [Compound 226] | > 90 | < 300
C=CC(=O)N1CC2(CCN(c3nc(N(C)CCN4CC(C)C4)nc4c(OCC(F)(F)F)c(-c5c(C)ccc6[nH]ncc56)c(C5CC5)cc34)CC2)C1 [Compound 227] | > 90 | < 300
C=CC(=O)N1CC2(CCN(c3nc(N(C)CCN4CC(F)C4)nc4c(OCC(F)(F)F)c(-c5c(C)ccc6[nH]ncc56)c(C5CC5)cc34)CC2)C1 [Compound 228] | > 90 | < 300
C=CC(=O)N1CC2(CCN(c3nc(N(C)CCN4CC(O)C4)nc4c(OCC(F)(F)F)c(-c5c(C)ccc6[nH]ncc56)c(C5CC5)cc34)CC2)C1 [Compound 229] | > 90 | < 300
C=CC(=O)N1CC2(CCN(c3nc(N(C)CCN4CC(OC)C4)nc4c(OCC(F)(F)F)c(-c5c(C)ccc6[nH]ncc56)c(C5CC5)cc34)CC2)C1 [Compound 230] | 50 to 90 | 300 to 1000

SMILES | inhibition at 1 µM (pERK level in H358 cells) [%] | IC50 (H358 cells) [nM]
C=CC(=O)N1CC2(CCN(c3nc(N(C)CCN4CC(C#N)C4)nc4c(OCC(F)(F)F)c(-c5c(C)ccc6[nH]ncc56)c(C5CC5)cc34)CC2)C1 [Compound 231] | 50 to 90 | 300 to 1000
C=CC(=O)N1CC2(CCN(c3nc(N(C)CCN4CCCC4)nc4c(OCC(F)(F)F)c(-c5c(C)ccc6[nH]ncc56)c(C5CC5)cc34)CC2)C1 [Compound 232] | > 90 | < 300
C=CC(=O)N1CC2(CCN(c3nc(N(C)CCN4CC[C@H](C)C4)nc4c(OCC(F)(F)F)c(-c5c(C)ccc6[nH]ncc56)c(C5CC5)cc34)CC2)C1 [Compound 233] | > 90 | < 300
C=CC(=O)N1CC2(CCN(c3nc(N(C)CCN4CC[C@H](O)C4)nc4c(OCC(F)(F)F)c(-c5c(C)ccc6[nH]ncc56)c(C5CC5)cc34)CC2)C1 [Compound 234] | > 90 | < 300
C=CC(=O)N1CC2(CCN(c3nc(N(C)CCN4CC[C@H](OC)C4)nc4c(OCC(F)(F)F)c(-c5c(C)ccc6[nH]ncc56)c(C5CC5)cc34)CC2)C1 [Compound 235] | > 90 | < 300
C=CC(=O)N1CC2(CCN(c3nc(N(C)CCN4CC[C@H](F)C4)nc4c(OCC(F)(F)F)c(-c5c(C)ccc6[nH]ncc56)c(C5CC5)cc34)CC2)C1 [Compound 236] | > 90 | < 300
C=CC(=O)N1CC2(CCN(c3nc(N4CC(N5CC(C)C5)C4)nc4c(OCC(F)(F)F)c(-c5c(C)ccc6[nH]ncc56)c(C5CC5)cc34)CC2)C1 [Compound 237] | > 90 | < 300
C=CC(=O)N1CC2(CCN(c3nc(N4CC(N5CC(C#N)C5)C4)nc4c(OCC(F)(F)F)c(-c5c(C)ccc6[nH]ncc56)c(C5CC5)cc34)CC2)C1 [Compound 238] | > 90 | 300 to 1000
C=CC(=O)N1CC2(CCN(c3nc(N4CC(N5CC(OCC(F)(F)F)C5)C4)nc4c(OCC(F)(F)F)c(-c5c(C)ccc6[nH]ncc56)c(C5CC5)cc34)CC2)C1 [Compound 239] | 50 to 90 | 300 to 1000
C=CC(=O)N1CC2(CCN(c3nc(N4CC(N5CC(C)(O)C5)C4)nc4c(OCC(F)(F)F)c(-c5c(C)ccc6[nH]ncc56)c(C5CC5)cc34)CC2)C1 [Compound 240] | > 90 | < 300
C=CC(=O)N1CC2(CCN(c3nc(N4CC(N5CC(S(C)(=O)=O)C5)C4)nc4c(OCC(F)(F)F)c(-c5c(C)ccc6[nH]ncc56)c(C5CC5)cc34)CC2)C1 [Compound 241] | 50 to 90 | 300 to 1000
C=CC(=O)N1CC2(CCN(c3nc(N4CC(N5CC(CC#N)C5)C4)nc4c(OCC(F)(F)F)c(-c5c(C)ccc6[nH]ncc56)c(C5CC5)cc34)CC2)C1 [Compound 242] | > 90 | < 300
C=CC(=O)N1CC2(CCN(c3nc(N4CC(N5CC(CO)C5)C4)nc4c(OCC(F)(F)F)c(-c5c(C)ccc6[nH]ncc56)c(C5CC5)cc34)CC2)C1 [Compound 243] | > 90 | < 300
C=CC(=O)N1CC2(CCN(c3nc(N4CC(N5CC(N(C)C)C5)C4)nc4c(OCC(F)(F)F)c(-c5c(C)ccc6[nH]ncc56)c(C5CC5)cc34)CC2)C1 [Compound 244] | > 90 | < 300
C=CC(=O)N1CC2(CCN(c3nc(N4CC(N5CCC[C@H]5C)C4)nc4c(OCC(F)(F)F)c(-c5c(C)ccc6[nH]ncc56)c(C5CC5)cc34)CC2)C1 [Compound 245] | > 90 | < 300
C=CC(=O)N1CC2(CCN(c3nc(N4CC(N5CCC[C@@H]5C)C4)nc4c(OCC(F)(F)F)c(-c5c(C)ccc6[nH]ncc56)c(C5CC5)cc34)CC2)C1 [Compound 246] | > 90 | < 300
C=CC(=O)N1CC2(CCN(c3nc(N4CC(N5CC[C@H](C)C5)C4)nc4c(OCC(F)(F)F)c(-c5c(C)ccc6[nH]ncc56)c(C5CC5)cc34)CC2)C1 [Compound 247] | > 90 | < 300
C=CC(=O)N1CC2(CCN(c3nc(N4CC(N5CC[C@@H](C)C5)C4)nc4c(OCC(F)(F)F)c(-c5c(C)ccc6[nH]ncc56)c(C5CC5)cc34)CC2)C1 [Compound 248] | > 90 | < 300

Source: patent US12479843B2, “Spiro ring-containing quinazoline compounds” (WIGEN BIOMEDICINE TECHNOLOGY (SHANGHAI) CO., LTD., priority 2019, dated 2025)
